The test system of one test is plasma creatinine. Description: Rat high-fat diet study: plasma creatinine. The test is classed as in vivo, Sprague Dawley male rats. The note with it: HFD rats, once daily oral gavage in weeks four and five, fold change relative to group 3 (HFD reference), * = P < 0.05. On the procedure:
(§1) The Ethics Committee of Atatürk University approved all experimental protocols about animal care, handling and experimentation. All experiments were performed in accordance with relevant guidelines and regulations. 44 Sprague Dawley male rats (10-12 weeks old) weighing 375-415 g were obtained from Atatürk University Experimental Research Center (ATADEM) and housed at 22±2° C. with 50±5% humidity on a 12 hr light/dark cycle.
(§2) Chow diet (CD) and a high-fat diet (HFD) were used to fed the animals in this study. The CD was composed of wheat, wheat bran, rice polishing and fish meal, with approximately 25% proteins, 60% carbohydrates and 15% fat in terms of the caloric content. On the other hand, HFD was composed of normal food, beef tallow, sugar and condensed milk and contained approximately 14% proteins, 37% carbohydrates and 49% fat in terms of the caloric content.
(§3) Following 1-week habituation, the rats were separated into two groups: a control group (Group 1, n=4), which was fed with a regular CD; and the HFD group (n=40), which was fed with HFD. After three weeks, four rats in the HFD group (Group 2) were randomly sacrificed and the remaining 36 rats in the HFD group were randomly divided into nine sub-groups (Groups 3-11, four rats in each subgroup).
(§4) Groups 3-11 received the following treatments during weeks four and five: • Group 3 received only the HFD (reference) • Group 4 received the HFD and Serine (1000 mg/kg once daily by oral gavage) • Group 5 received the HFD and NAC (300 mg/kg once daily by oral gavage) • Group 6 received the HFD and L-Carnitine tartrate (LCAT) (100 mg/kg once daily by oral gavage) • Group 7 received the HFD and Nicotinamide riboside chloride (NRCl) (120 mg/kg once daily by oral gavage) • Group 8 received the HFD and Nicotinamide (NA) (120 mg/kg once daily by oral gavage) • Group 9 received the HFD, Serine (1000 mg/kg once daily by oral gavage), NAC (300 mg/kg once daily by oral gavage) and LCAT (100 mg/kg once daily by oral gavage) • Group 10 received the HFD, Serine (1000 mg/kg once daily by oral gavage), NAC (300 mg/kg once daily by oral gavage), LCAT (100 mg/kg/day) and NRCl (120 mg/kg once daily by oral gavage) • Group 11 received the HFD, Serine (1000 mg/kg once daily by oral gavage), NAC (300 mg/kg once daily by oral gavage), LCAT (100 mg/kg once daily by oral gavage) and NA (120 mg/kg once daily by oral gavage)
(§5) The body weight and food intake of the rats was recorded each week. After week five, all animals of groups 3-11 were anesthetized with isoflurane and sacrificed. Blood samples were collected from the abdominal aorta and centrifuged at 8000 rpm for 15 min at 4° C. The plasma was separated and stored at −80° C. until further analysis.
(§6) Plasma samples were thawed and analyzed for creatinine and uric acid.

The next test concerns plasma uric acid. Description: Rat high-fat diet study: plasma uric acid. In kind it is in vivo, Sprague Dawley male rats. As to conditions: HFD rats, once daily oral gavage in weeks four and five, fold change relative to group 3 (HFD reference), * = P < 0.05. On the procedure:
as §1, §2, §3, §4, §5, §6

As for `C[N+](C)(C)C[C@H](O)CC(=O)[O-].O=C(O)C(O)C(O)C(=O)O` [LCAT, L-Carnitine tartrate], the “Creatinine Fold change” value with plasma creatinine was found to be 0.89. For the same molecule, the “Uric Acid Fold change” value in the test with plasma uric acid is listed as 0.62*.
Regarding `NC(=O)c1cccnc1` [NA, Nicotinamide], the “Creatinine Fold change” value in the test on plasma creatinine stood at 0.96. Also, in the test on plasma uric acid, the “Uric Acid Fold change” value was 0.53*.
With `CC(=O)N[C@@H](CS)C(=O)O` [NAC, N-acetyl cysteine], in the test with plasma creatinine, the “Creatinine Fold change” value was found to be 0.85. In addition, in the test with plasma uric acid, the “Uric Acid Fold change” value was 0.76.
Turning to `NC(=O)c1ccc[n+]([C@@H]2O[C@H](CO)[C@@H](O)[C@H]2O)c1.[Cl-]` [NRCl, Nicotinamide riboside chloride], in the test on plasma creatinine, the “Creatinine Fold change” value was 0.83*. Besides, in the test on plasma uric acid, the “Uric Acid Fold change” value is 0.64*.
Turning to `N[C@@H](CO)C(=O)O` [Serine], the “Creatinine Fold change” value with plasma creatinine is 0.84*. Also, the “Uric Acid Fold change” value in the test with plasma uric acid is given as 0.72*.

Values taken from patent publication US20240000737A1, “SUBSTANCES FOR TREATMENT OF HYPERURICAEMIA” (SCANDIBIO THERAPEUTICS AB, priority 2020, published 2024).
